From ChEMBL document CHEMBL3120080, “Characterization of lovastatin-docosahexaenoate anticancer properties against breast cancer cells” (Bioorg Med Chem, 2014)
Activity calls are given as the source filed them. The rule behind the calls is not given here.

Experiments:
MDA-MB-231 [1] = test: Induction of apoptosis in human MDA-MB-231 cells assessed as apoptotic cells at 5 uM after 48 hrs by annexin V/propidium iodide based flow cytometry (reference value: 2.4 +/-0.5%); assay type: functional
MDA-MB-231 [2] = test: Induction of apoptosis in human MDA-MB-231 cells assessed as necrotic cells at 1 uM after 48 hrs by annexin V/propidium iodide based flow cytometry (reference value: 4.4 +/-0.4%); assay type: functional
MDA-MB-231 [3] = test: Cell cycle arrest in PR, ER, HER2-negative human MDA-MB-231 cells assessed as accumulation at G2/M phase at 10 uM after 30 hrs by flow cytometer (reference value: 17.1 +/-2.1%); assay type: functional
MDA-MB-231 [4] = test: Induction of apoptosis in human MDA-MB-231 cells assessed as necrotic cells at 10 uM after 48 hrs by annexin V/propidium iodide based flow cytometry (reference value: 4.4 +/-0.4%); assay type: functional
AU565 [5] = test: Total growth inhibition of ER-negative, HER2-positive human AU565 cells at >15 uM after 48 hrs by WST-1 assay; assay type: functional, cell-based
MDA-MB-231 [6] = test: Induction of apoptosis in human MDA-MB-231 cells assessed as viable cells at 5 uM after 48 hrs by annexin V/propidium iodide based flow cytometry (reference value: 93.2 +/-0.9%); assay type: functional; settings: MDA-MB-231, 48 h, read-out: Activity
MDA-MB-231 [7] = test: Growth inhibition of PR, ER, HER2-negative human MDA-MB-231 cells at <25 uM after 48 hrs by WST-1 assay; assay type: functional, cell-based
MDA-MB-231 [8] = test: Cell cycle arrest in PR, ER, HER2-negative human MDA-MB-231 cells assessed as accumulation at S phase at 10 uM after 30 hrs by flow cytometer (reference value: 33.1 +/-0.3%); assay type: functional
MDA-MB-231 [9] = test: Cell cycle arrest in PR, ER, HER2-negative human MDA-MB-231 cells assessed as accumulation at S phase at 1 uM after 30 hrs by flow cytometer (reference value: 33.1 +/-0.3%); assay type: functional
MDA-MB-231 [10] = test: Downregulation of p21 expression in human PR, ER, HER2-negative human MDA-MB-231 cells at 10 uM after 24 hrs by western blot analysis; assay type: functional, cell-based
MDA-MB-468 [11] = test: Growth inhibition of PR, ER, HER2-negative human MDA-MB-468 cells after 48 hrs by WST-1 assay; assay type: functional, cell-based
MDA-MB-231 [12] = test: Induction of apoptosis in human MDA-MB-231 cells assessed as viable cells at 10 uM after 48 hrs by annexin V/propidium iodide based flow cytometry (reference value: 93.2 +/-0.9%); assay type: functional; settings: MDA-MB-231, 48 h, read-out: Activity
MDA-MB-231 [13] = test: Induction of apoptosis in human MDA-MB-231 cells assessed as apoptotic cells at 1 uM after 48 hrs by annexin V/propidium iodide based flow cytometry (reference value: 2.4 +/-0.5%); assay type: functional
MDA-MB-231 [14] = test: Cell cycle arrest in PR, ER, HER2-negative human MDA-MB-231 cells assessed as accumulation at G0/G1 phase at 10 uM after 30 hrs by flow cytometer (reference value: 49.8 +/-1.5%); assay type: functional
MDA-MB-231 [15] = test: Induction of apoptosis in human MDA-MB-231 cells assessed as viable cells at 1 uM after 48 hrs by annexin V/propidium iodide based flow cytometry (reference value: 93.2 +/-0.9%); assay type: functional; settings: MDA-MB-231, 48 h, read-out: Activity
MDA-MB-361 [16] = test: Growth inhibition of ER-positive, HER2-positive human MDA-MB-361 cells after 48 hrs by WST-1 assay; assay type: functional, cell-based
MDA-MB-231 [17] = test: Induction of apoptosis in human MDA-MB-231 cells assessed as apoptotic cells at 10 uM after 48 hrs by annexin V/propidium iodide based flow cytometry (reference value: 2.4 +/-0.5%); assay type: functional
MDA-MB-231 [18] = test: Cell cycle arrest in PR, ER, HER2-negative human MDA-MB-231 cells assessed as accumulation at G2/M phase at 1 uM after 30 hrs by flow cytometer (reference value: 17.1 +/-2.1%); assay type: functional
HMEC [19] = test: Cytotoxicity against human HMEC assessed as growth inhibition after 48 hrs by WST-1 assay; assay type: cell-based
MDA-MB-231 [20] = test: Cell cycle arrest in PR, ER, HER2-negative human MDA-MB-231 cells assessed as accumulation at G0/G1 phase at 1 uM after 30 hrs by flow cytometer (reference value: 49.8 +/-1.5%); assay type: functional
MCF7 [21] = test: Growth inhibition of ER-positive, HER2-negative human MCF7 cells after 48 hrs by WST-1 assay; assay type: functional, cell-based
MDA-MB-231 [22] = test: Induction of apoptosis in human MDA-MB-231 cells assessed as necrotic cells at 5 uM after 48 hrs by annexin V/propidium iodide based flow cytometry (reference value: 4.4 +/-0.4%); assay type: functional
Serum = test: Stability of the compound in mouse serum at 1 mM after 2 hrs by RP-HPLC analysis; assay type: ADME; settings: 1000 µM
HMEC [23] = test: Cytotoxicity against human HMEC at 25 uM after 48 hrs by WST-1 assay; assay type: cell-based
AU565 [24] = test: Cytotoxicity against ER-negative, HER2-positive human AU565 cells after 48 hrs by WST-1 assay; assay type: functional, cell-based
MDA-MB-361 [25] = test: Cytotoxicity against ER-positive, HER2-positive human MDA-MB-361 cells at higher concentration after 48 hrs by WST-1 assay; assay type: functional, cell-based
HMEC [26] = test: Cytotoxicity against human HMEC at >15 uM after 48 hrs by WST-1 assay; assay type: cell-based
MDA-MB-231 [27] = test: Cytotoxicity against PR, ER, HER2-negative human MDA-MB-231 cells assessed as decrease in cell viability at >5 uM after 48 hrs by WST-1 assay; assay type: functional, cell-based
MDA-MB-231 [28] = test: Stability of the compound in human MDA-MB-231 cells assessed as DHA content at 5 uM after 24 hrs by gas chromatography; assay type: ADME, cell-based; settings: mda-mb-231, 24 h
AU565 [29] = test: Growth inhibition of ER-negative, HER2-positive human AU565 cells at >5 uM after 48 hrs by WST-1 assay; assay type: functional, cell-based
MDA-MB-468 [30] = test: Cytotoxicity against PR, ER, HER2-negative human MDA-MB-468 cells at >7.5 uM after 48 hrs by WST-1 assay; assay type: functional, cell-based
MDA-MB-231 [31] = test: Growth inhibition of PR, ER, HER2-negative human MDA-MB-231 cells at 1 uM after 48 hrs by WST-1 assay in presence of mevalonate; assay type: functional, cell-based
MDA-MB-231 [32] = test: Total growth inhibition of PR, ER, HER2-negative human MDA-MB-231 cells at >10 uM after 48 hrs by WST-1 assay; assay type: functional, cell-based
MDA-MB-231 [33] = test: Growth inhibition of PR, ER, HER2-negative human MDA-MB-231 cells after 48 hrs by WST-1 assay in presence of geranylgeranyl pyrophosphate; assay type: functional, cell-based
MDA-MB-231 [34] = test: Cytotoxicity against PR, ER, HER2-negative human MDA-MB-231 cells after 48 hrs by WST-1 assay; assay type: functional, cell-based
MDA-MB-468 [35] = test: Cytotoxicity against PR, ER, HER2-negative human MDA-MB-468 cells after 48 hrs by WST-1 assay; assay type: functional, cell-based
AU565 [36] = test: Growth inhibition of ER-negative, HER2-positive human AU565 cells after 48 hrs by WST-1 assay; assay type: functional, cell-based
MDA-MB-231 [37] = test: Induction of p21 expression in human PR, ER, HER2-negative human MDA-MB-231 cells at 1 to 10 uM after 24 hrs by western blot analysis; assay type: functional, cell-based
MCF7 [38] = test: Total growth inhibition of ER-positive, HER2-negative human MCF7 cells after 48 hrs by WST-1 assay; assay type: functional, cell-based
MDA-MB-468 [39] = test: Total growth inhibition of PR, ER, HER2-negative human MDA-MB-468 cells after 48 hrs by WST-1 assay; assay type: functional, cell-based

Compound	Activity (MDA-MB-231 [1]) [%]	Activity (MDA-MB-231 [2]) [%]	Activity (MDA-MB-231 [3]) [%]	Activity (MDA-MB-231 [4]) [%]	viability at 5 µM (MDA-MB-231 [6]) [%]	Activity (MDA-MB-231 [8]) [%]	Activity (MDA-MB-231 [9]) [%]	inhibition (MDA-MB-231 [10])	viability at 10 µM (MDA-MB-231 [12]) [%]	Activity (MDA-MB-231 [13]) [%]	Activity (MDA-MB-231 [14]) [%]	viability at 1 µM (MDA-MB-231 [15]) [%]	growth inhibition (GI) (MDA-MB-361 [16])	Activity (MDA-MB-231 [17]) [%]	Activity (MDA-MB-231 [18]) [%]	Activity (HMEC [19])	Activity (MDA-MB-231 [20]) [%]	growth inhibition (GI) (MCF7 [21])	Activity (MDA-MB-231 [22]) [%]	growth inhibition (GI) (MDA-MB-231 [31])	further results
CC/C=C\C/C=C\C/C=C\C/C=C\C/C=C\C/C=C\CCC(=O)O [DOCONEXENT]	1.1	2.9	16.2	5.6	96.5	33	33.8	Active	92.5	2.6	50.8	94.5	Active	1.9	17.5	Dose-dependent effect	48.7	Active	2.4		TGI (AU565 [5]): Active; growth inhibition (GI) (MDA-MB-231 [7]): Active; growth inhibition (GI) (MDA-MB-468 [11]): Active
CC/C=C\C/C=C\C/C=C\C/C=C\C/C=C\C/C=C\CCC(=O)O[C@H]1CC(=O)O[C@H](CC[C@@H]2[C@@H]3C(=C[C@H](C)C[C@@H]3OC(=O)[C@@H](C)CC)C=C[C@@H]2C)C1	7.2	6.7	14.1	35.4	83.3	34.8	34.9	Active	40	9.2	51.2	84.1		24.6	17.3		47.8	Active	9.6	Active	Stability (Serum): Stable; Activity (HMEC [23]): 25%; Activity (AU565 [24]): inactive; Activity (MDA-MB-361 [25]): Active; Activity (HMEC [26]): Toxic; Activity (MDA-MB-231 [27]): Active; Stability (MDA-MB-231 [28]): Stable; growth inhibition (GI) (AU565 [29]): Active; Activity (MDA-MB-468 [30]): Active
CC[C@H](C)C(=O)O[C@H]1C[C@@H](C)C=C2C=C[C@H](C)[C@H](CC[C@@H]3C[C@@H](O)CC(=O)O3)[C@H]21 [LOVASTATIN]	4.9	7.8	6.3	11.2	84.3	9.8	16.3		84.2	2.5	83.9	89.7	Active	4.6	9	Toxic	74.7		10.8	inactive	TGI (MDA-MB-231 [32]): Active; growth inhibition (GI) (MDA-MB-231 [33]): inactive; Activity (MDA-MB-231 [34]): inactive; Activity (MDA-MB-468 [35]): inactive; growth inhibition (GI) (AU565 [36]): Active; Activity (MDA-MB-231 [37]): Active; TGI (MCF7 [38]): Active; TGI (MDA-MB-468 [39]): Active
